Measurements as given in EP1263429B1, “ANTIVIRAL THERAPY” (Universiteit Utrecht, priority 2000, dated 2001).

Columns and labels:
[1] = system: drug-resistant HIV strains; details: Table 2 strains
HIV-1Ba-L = test: HIV-1 production by chronically infected MDM, p24-core antigen ELISA; assay type: cell-based; details: Fig 6D; APHS added 5 days after infection, 2 days of incubation
Protocol: (A, B) Peripheral blood mononuclear cells (PBMC) were isolated from heparinized blood from HIV-1-, HIV-2-, and hepatitis B-seronegative donors and obtained on Ficoll-Hypaque density gradients. Cells were washed twice, stimulated with 5 µg/ml phytohemagglutinin (PHA), and cultured m RPMI-1640 medium supplemented with 5 mM Hepes, 19 mM sodium bicarbonate, 10 µg/mL gentamicin, and 10% heat-inactivated fetal calf serum (PBMC culture medium) at a concentration of 2 x 10^6 cells/ml. After 3 days of incubation stimulated PBMC were recovered from the flasks and infected for 2 hours with HIV-1Ba-L at a multiplicity of infection of 0.01. Afterwards, HIV-infected and mock-infected PBMC were washed twice to remove unbound virus. […] (B) PBMC were cultured in suspension at a concentration of 2 x 10^6 cells/ml in Teflon flasks in PBMC culture medium. […] After 2 days of incubation samples of culture supernatant were collected. p24-core antigen production was quantified using the enzyme-linked immunosorbent assay (ELISA) system of John Moore. […] (C, D) PBMC were isolated from heparinized blood from HIV-1-, HIV-2-, and hepatitis B-seronegative donors and obtained on Ficoll-Hypaque density gradients. […] After 2 days of incubation samples of culture supernatant were collected. p24-core antigen production was quantified using the enzyme-linked immunosorbent assay (ELISA) system of John Moore. […]

[2] = system: Monocyte-derived macrophages (MDM); assay type: cell-based, human
Protocol: Cell viability is assessed by the MTT assay. In short, cells are incubated with MTT 3-(4,5-dimethylthiazol-2-yl)-2,5-diphenyltetrazollumbromide (Sigma) for 2 hours at 37 °C. During this time viable cells convert MTT into […] formazan dyes. Afterwards crystals are solubilised with a solution containing isopropanol. The OD of the supernatant is measured at 550 nm.
Monocyte-derived macrophages (MDM) were obtained like described above. MDM were then washed twice and cultured for 4 to 7 days in different concentrations of APHS. After a 4 days incubation period cellular viability was assessed by MTT cytotoxicity assay where viable cells convert MTT into a colored formazan dye that can be measured spectrophotometrically.
• Fig. 1 - Plasmids that are used for studies on the effect of compounds on HIV promotor activity. • Fig. 2 - Peripheral blood mononuclear cells (PBMC) were isolated from heparinized blood from HIV-1-, HIV-2-, and hepatitis B-seronegative donors and obtained on Ficoll-Hypaque density gradients. PBMC were washed twice and monocytes were purified by countercurrent centrifugal elutriation. […] After 4 and 5 days of incubation samples of culture supernatant were collected and p24-core antigen production was quantified using the enzyme-linked immunosorbent assay (ELISA) system of John Moore. […]

SMILES: CCCCC#CCSc1ccccc1OC(C)=O [APHS, o-(acetoxy-phenyl)hept-2-ynyl sulphide]
- inhibitory activity against drug resistant strains versus activity against a sensitive strain [1]: two- to four-fold higher
- inhibition of HIV-1 production by chronically infected MDM (HIV-1Ba-L): does not inhibit
- cytotoxicity (cellular viability, MTT) [2]: None of the tested concentrations of APHS was found to be cytotoxic
